Columns and labels:
Test in all cases: Post-emergence foliage spray, pot culture, fresh weight inhibition (Tables 1-48, 51-98, 101-148; 24 days)
Format in all cases: in vivo
Beckmannia syzigachne = tested on: Beckmannia syzigachne
Description: (§1) Table 1-48, 51-98, 101-148: Echinochloa crusgalli var. zelayensis, Eclipta prostrate, Galium aparine L., Alopecurus aequalis, Alopecurus japonicus, Lindernia procumbens, Veronica persica^1, Malachium aquaticum, Beckmannia syzigachne, Stellaria media were collected in Huai'an of Jiangsu Province; Commelina communis, Sonchus arvensis, Setaria glauca, Chloris virgata, Setaria faberi, Sonchus oleraceus L., Echinochloa oryzoides, Cirsium setosum, Xanthium strumarium were collected in Qiqiha'er of Heilongjiang Province; Sinapis arvensis, Veronica persica^2 were collected in Zhumadian of Henan Province; Ludwigia prostrate, Ammannia arenaria were collected in Zhuji of Zhejiang Province; Amaranthus retrojlexus, Descurainia sophia, Digitaria sanguinalis, Setaria viridis, Conyza Canadensis, Capsella bursa-pastoris, Eleusine indica, Ipomoea purpurea, Abutilon theophrasti, Chenopodium album, Acalypha australis, Solanum nigrum were collected in Qingdao of Shandong Province; Echinochloa caudate were collected in Pingluo of Ningxia Province.
(§2) The above weeds were cultivated by a pot culture method. […] Full and uniform weed seeds were selected, soaked in warm water at 25° C. for 6 hours, and germinated in a 28° C. biochemical incubator (darkness). The weed seeds that had just germinatedwere evenly placed on the surface of the soil and then covered with 0.5-1 cm soil according to the sizes of seeds.
(§3) The culture was carried out in a controllable sunlight greenhouse at 20 to 30° C., in natural light, and relative humidity of 57% to 72%.
(§4) The technical materials were all dissolved in acetone, and diluted with an aqueous solution containing 0.1% emulsifier Tween-80. The dilution is performed as required.
(§5) A ratio of the active ingredient A to the active ingredient B and amounts thereof in each group depends on the characteristics and toxicity of the two agents, as well as the main application purpose of a corresponding formulation. Based on the pre-tests in this study, the dosage of the active ingredient A and B applied alone and in combination were shown in the tables. Water containing the solvent and emulsifier same with the above groups but free of the agents was used as a blank control.
(§6) Table 1-48, 51-98, 101-148, 151-206: […] per treatment, that is, a total of 60 weeds were treated in one treatment.
(§7) Table 1-48, 51-98, 101-148: The agents were used for only once in the experiment. In the stage of weeds with 3˜4 leaves, the weeds were thinned out to maintain 15 weeds per pot and 45 weeds for each treatment, then continued to be cultured to 5˜6 leaves stage of grassy weeds, 6˜7 leaves stage of broadleaf weeds, and treated.
(§8) The well-cultured weeds were evenly placed on a platform with an area of 0.5 m^2, and a solution of agents was sprayed on the stems and leaves thereof by the 3WP-2000-type walking spray tower at a dosage of 450 kg/ha and at a spray pressure of 0.3 MPa. After all the solution was sprayed, the valve was closed. After 30 seconds, the door of the spray tower was opened, and the nutritional bowl was taken out. Then the valve was opened, and the spray tube was cleaned by spraying 50 ml of water.
(§9) A pot-culture method was employed. For the cultivation of weeds, please refer to the Section 1.1), and “Pesticide guidelines for laboratory bioactivity tests—herbicides”. As to a method for applying agents, please refer to the section 2.3.2), that is, a foliage treatment was employed. After the treatment, the weeds were routinely cultured in a greenhouse.
(§10) A method for investigating absolute number was employed, wherein whole seedlings of survival weeds were cut off with a blade along the soil surface, and the fresh weight of the weeds was weighed with an analytical balance. For dead weeds, the fresh weight thereof was zero.
(§11) Table 1-48, 51-98, 101-148, 207-216: The investigation was performed after 24 days of the treatment for only once.

Alopecurus japonicus = tested on: Alopecurus japonicus
Description: as §1, §2, §3, §4, §5, §6, §7, §8, §9, §10, §11

Chenopodium album = tested on: Chenopodium album
Procedure, shortened: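 Pot-grown weeds were thinned to 15 per pot (45 per treatment) and sprayed on foliage at the 5–6-leaf stage for grasses or the 6–7-leaf stage for broadleaves. Agents were dissolved in acetone with 0.1% Tween-80 and applied at 450 kg/ha spray volume and 0.3 MPa. Plants were then kept in a greenhouse. Above-ground fresh weight of survivors, with dead plants counted as zero, gave inhibition versus a solvent/emulsifier blank.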

Acalypha australis = tested on: Acalypha australis
Description: as §1, §2, §3, §4, §5, §6, §7, §8, §9, §10, §11

Cn1[nH]c(C2CC2)c(C(=O)c2ccc(C(F)(F)F)c(N3CCCCC3=O)c2Cl)c1=O [cypyrafluone]
Control effect (%) of B applied alone in corresponding dose (Beckmannia syzigachne; B 18.75 g a.i./ha): 9.0% | Control effect (%) of B applied alone in corresponding dose (Beckmannia syzigachne; B 37.5 g a.i./ha): 14.2% | Control effect (%) of B applied alone in corresponding dose (Beckmannia syzigachne; B 75 g a.i./ha): 56.3% | Control effect (%) of B applied alone in corresponding dose (Beckmannia syzigachne; B 150 g a.i./ha): 81.8% | Control effect (%) of B applied alone in corresponding dose (Alopecurus japonicus; cypyrafluone 18.75 g a.i./ha): 4.0% | Control effect (%) of B applied alone in corresponding dose (Alopecurus japonicus; cypyrafluone 37.5 g a.i./ha): 24.9% | Control effect (%) of B applied alone in corresponding dose (Alopecurus japonicus; cypyrafluone 75 g a.i./ha): 54.8% | Control effect (%) of B applied alone in corresponding dose (Alopecurus japonicus; cypyrafluone 150 g a.i./ha): 81.3%

O=C(O)COC(=O)c1cc(Oc2ccc(C(F)(F)F)cc2Cl)ccc1[N+](=O)[O-] [fluoroglycofen]
Control effect (%) of B applied alone in corresponding dose (Chenopodium album; Table 92, 0.9375 g a.i./ha): 2.3% | Control effect (%) of B applied alone in corresponding dose (Chenopodium album; Table 92, 1.875 g a.i./ha): 12.8% | Control effect (%) of B applied alone in corresponding dose (Chenopodium album; Table 92, 3.75 g a.i./ha): 40.0% | Control effect (%) of B applied alone in corresponding dose (Chenopodium album; Table 92, 7.5 g a.i./ha): 70.6% | Control effect (%) of B applied alone in corresponding dose (Acalypha australis; B 0.9375 g a.i./ha): 4.0% | Control effect (%) of B applied alone in corresponding dose (Acalypha australis; B 1.875 g a.i./ha): 15.7% | Control effect (%) of B applied alone in corresponding dose (Acalypha australis; B 3.75 g a.i./ha): 41.6% | Control effect (%) of B applied alone in corresponding dose (Acalypha australis; B 7.5 g a.i./ha): 71.4%

CS(=O)(=O)NC(=O)c1cc(Oc2ccc(C(F)(F)F)cc2Cl)ccc1[N+](=O)[O-] [fomesafen]
Control effect (%) of B applied alone in corresponding dose (Chenopodium album; Table 91, 22.5 g a.i./ha): 2.7% | Control effect (%) of B applied alone in corresponding dose (Chenopodium album; Table 91, 45 g a.i./ha): 18.6% | Control effect (%) of B applied alone in corresponding dose (Chenopodium album; Table 91, 90 g a.i./ha): 45.4% | Control effect (%) of B applied alone in corresponding dose (Chenopodium album; Table 91, 180 g a.i./ha): 81.9% | Control effect (%) of B applied alone in corresponding dose (Acalypha australis; B 22.5 g a.i./ha): 6.4% | Control effect (%) of B applied alone in corresponding dose (Acalypha australis; B 45 g a.i./ha): 12.6% | Control effect (%) of B applied alone in corresponding dose (Acalypha australis; B 90 g a.i./ha): 46.9% | Control effect (%) of B applied alone in corresponding dose (Acalypha australis; B 180 g a.i./ha): 82.4%

CC(C)c1ccc(NC(=O)N(C)C)cc1 [isoproturon]
Control effect (%) of B applied alone in corresponding dose (Beckmannia syzigachne; B 75 g a.i./ha): 7.0% | Control effect (%) of B applied alone in corresponding dose (Beckmannia syzigachne; B 150 g a.i./ha): 15.9% | Control effect (%) of B applied alone in corresponding dose (Beckmannia syzigachne; B 300 g a.i./ha): 57.6% | Control effect (%) of B applied alone in corresponding dose (Beckmannia syzigachne; B 600 g a.i./ha): 76.6% | Control effect (%) of B applied alone in corresponding dose (Alopecurus japonicus; isoproturon 75 g a.i./ha): 2.5% | Control effect (%) of B applied alone in corresponding dose (Alopecurus japonicus; isoproturon 150 g a.i./ha): 11.4% | Control effect (%) of B applied alone in corresponding dose (Alopecurus japonicus; isoproturon 300 g a.i./ha): 56.5% | Control effect (%) of B applied alone in corresponding dose (Alopecurus japonicus; isoproturon 600 g a.i./ha): 75.9%

CCOC(=O)C(C)OC(=O)c1cc(Oc2ccc(C(F)(F)F)cc2Cl)ccc1[N+](=O)[O-] (centres unmarked) [lactofen]
Control effect (%) of B applied alone in corresponding dose (Chenopodium album; Table 94, 7.5 g a.i./ha): 3.3% | Control effect (%) of B applied alone in corresponding dose (Chenopodium album; Table 94, 15 g a.i./ha): 10.4% | Control effect (%) of B applied alone in corresponding dose (Chenopodium album; Table 94, 30 g a.i./ha): 39.7% | Control effect (%) of B applied alone in corresponding dose (Chenopodium album; Table 94, 60 g a.i./ha): 65.4% | Control effect (%) of B applied alone in corresponding dose (Acalypha australis; B 7.5 g a.i./ha): 2.7% | Control effect (%) of B applied alone in corresponding dose (Acalypha australis; B 15 g a.i./ha): 13.5% | Control effect (%) of B applied alone in corresponding dose (Acalypha australis; B 30 g a.i./ha): 41.4% | Control effect (%) of B applied alone in corresponding dose (Acalypha australis; B 60 g a.i./ha): 66.4%

CCOc1cc(Oc2ccc(C(F)(F)F)cc2Cl)ccc1[N+](=O)[O-] [oxyfluorfen]
Control effect (%) of B applied alone in corresponding dose (Chenopodium album; Table 93, 7.5 g a.i./ha): 3.6% | Control effect (%) of B applied alone in corresponding dose (Chenopodium album; Table 93, 15 g a.i./ha): 11.9% | Control effect (%) of B applied alone in corresponding dose (Chenopodium album; Table 93, 30 g a.i./ha): 30.7% | Control effect (%) of B applied alone in corresponding dose (Chenopodium album; Table 93, 60 g a.i./ha): 68.1% | Control effect (%) of B applied alone in corresponding dose (Acalypha australis; B 7.5 g a.i./ha): 4.6% | Control effect (%) of B applied alone in corresponding dose (Acalypha australis; B 15 g a.i./ha): 12.4% | Control effect (%) of B applied alone in corresponding dose (Acalypha australis; B 30 g a.i./ha): 32.7% | Control effect (%) of B applied alone in corresponding dose (Acalypha australis; B 60 g a.i./ha): 68.9%

CCc1cc(C)cc(CC)c1-c1c(OC(=O)C(C)(C)C)n2n(c1=O)CCOCC2 [pinoxaden]
Control effect (%) of B applied alone in corresponding dose (Beckmannia syzigachne; B 3.75 g a.i./ha): 7.9% | Control effect (%) of B applied alone in corresponding dose (Beckmannia syzigachne; B 7.5 g a.i./ha): 18.0% | Control effect (%) of B applied alone in corresponding dose (Beckmannia syzigachne; B 15 g a.i./ha): 43.5% | Control effect (%) of B applied alone in corresponding dose (Beckmannia syzigachne; B 30 g a.i./ha): 72.6% | Control effect (%) of B applied alone in corresponding dose (Alopecurus japonicus; pinoxaden 3.75 g a.i./ha): 2.5% | Control effect (%) of B applied alone in corresponding dose (Alopecurus japonicus; pinoxaden 7.5 g a.i./ha): 12.1% | Control effect (%) of B applied alone in corresponding dose (Alopecurus japonicus; pinoxaden 15 g a.i./ha): 41.7% | Control effect (%) of B applied alone in corresponding dose (Alopecurus japonicus; pinoxaden 30 g a.i./ha): 71.8%

— US20220264878A1, “HERBICIDAL COMPOSITION CONTAINING R-TYPE PYRIDYLOXY CARBOXYLIC ACID DERIVATIVE AND USE THEREOF” (Qingdao Kingagroot Chemical Compound Co., Ltd., priority 2019, published 2022)
